Entries after “also recorded” stand apart in the source; their conditions may differ. Where two headings read alike, the source gives them in different places.
Legend:
[1] = target: T1, human CB2 cannabinoid receptor (Homo sapiens, UniProt P34972); assay: biochemical; assay type: binding; settings: for nH (Hill coefficient): competition curve fit; for Top (% inhibition of control specific binding): four parameter curve fit
T1 construct: host or cells: CHO cells

human CB2 receptor = target: T2, human CB2 receptor (Homo sapiens, UniProt P34972); assay: cell-based; settings: for EC50: cAMP HTRF, transfected CHO cells, two replicate experiments, error = standard deviation
T2 construct: host or cells: CHO cells
T2 sequence (P34972 whole entry): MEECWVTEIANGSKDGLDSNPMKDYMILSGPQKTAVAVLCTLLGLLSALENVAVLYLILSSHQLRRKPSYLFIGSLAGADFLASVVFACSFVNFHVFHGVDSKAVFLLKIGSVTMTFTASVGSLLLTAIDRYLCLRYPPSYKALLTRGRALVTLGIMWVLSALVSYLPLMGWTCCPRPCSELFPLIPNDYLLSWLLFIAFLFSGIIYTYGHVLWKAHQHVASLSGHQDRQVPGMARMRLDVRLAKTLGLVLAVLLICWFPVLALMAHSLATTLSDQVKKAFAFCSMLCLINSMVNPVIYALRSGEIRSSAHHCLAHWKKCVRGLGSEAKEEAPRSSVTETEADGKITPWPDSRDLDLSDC

[2] = target: T3, human CB1 cannabinoid receptor (Homo sapiens, UniProt P21554); assay: biochemical; assay type: binding; settings: for nH (Hill coefficient) / Top (% inhibition of control specific binding): SI; for nH (Hill coefficient): competition curve fit; for Top (% inhibition of control specific binding): four parameter curve fit
T3 construct: host or cells: Chem-1 cells
T3 sequence (P21554 whole entry): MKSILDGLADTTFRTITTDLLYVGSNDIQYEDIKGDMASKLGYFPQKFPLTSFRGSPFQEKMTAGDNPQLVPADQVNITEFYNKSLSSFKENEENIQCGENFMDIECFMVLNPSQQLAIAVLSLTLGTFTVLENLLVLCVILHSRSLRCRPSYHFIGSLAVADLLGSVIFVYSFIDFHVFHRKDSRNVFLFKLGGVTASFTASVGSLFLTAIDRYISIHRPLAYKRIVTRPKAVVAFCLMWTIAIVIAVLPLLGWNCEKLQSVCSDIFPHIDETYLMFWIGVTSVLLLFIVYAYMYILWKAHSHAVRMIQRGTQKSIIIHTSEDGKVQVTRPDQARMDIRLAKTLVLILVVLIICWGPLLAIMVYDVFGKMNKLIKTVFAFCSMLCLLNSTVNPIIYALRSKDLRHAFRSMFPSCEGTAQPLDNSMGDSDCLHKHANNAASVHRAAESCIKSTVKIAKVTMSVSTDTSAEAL

human CB1 receptor = target: T4, human CB1 receptor (Homo sapiens, UniProt P21554); assay: cell-based; settings: for EC50: cAMP HTRF, transfected CHO cells, two replicate experiments, error = standard deviation
T4 construct: host or cells: CHO cells
T4 sequence (P21554 whole entry): as above

[3] = [3H]WIN 55212-2 displacement, transfected CHO cell lysate, two replicate experiments, error = standard deviation, read-out: Ki (CB2)

T1 sequence (P34972 whole entry): as the sequence (P34972 whole entry) above

Row | Compound | % inhibition of control specific binding ([1]; Log[M] –5.48, 1st replicate) | % inhibition of control specific binding ([1]; Log[M] –5.48, 2nd replicate) | % inhibition of control specific binding ([1]; Log[M] –6.43, 1st replicate) | % inhibition of control specific binding ([1]; Log[M] –6.43, 2nd replicate) | % inhibition of control specific binding ([1]; Log[M] –6.91, 1st replicate) | % inhibition of control specific binding ([1]; Log[M] –6.91, 2nd replicate) | % inhibition of control specific binding ([1]; Log[M] –7.39, 1st replicate) | % inhibition of control specific binding ([1]; Log[M] –7.39, 2nd replicate) | % inhibition of control specific binding ([1]; Log[M] –7.86, 1st replicate) | % inhibition of control specific binding ([1]; Log[M] –7.86, 2nd replicate) | nH (Hill coefficient) ([1]; SI) | Top (% inhibition of control specific binding) ([1]; SI) | agonist character at CB2 (human CB2 receptor; functional assay) | % inhibition of control specific binding ([2]; Log[M] –5.48, 1st replicate) | % inhibition of control specific binding ([2]; Log[M] –5.48, 2nd replicate) | % inhibition of control specific binding ([2]; Log[M] –6.43, 1st replicate) | % inhibition of control specific binding ([2]; Log[M] –6.43, 2nd replicate) | % inhibition of control specific binding ([2]; Log[M] –6.91, 1st replicate) | % inhibition of control specific binding ([2]; Log[M] –6.91, 2nd replicate) | % inhibition of control specific binding ([2]; Log[M] –7.39, 1st replicate) | further results
1 | CCCCCc1cc(O)c2c(c1)OC(C)(C)[C@@H]1CCC(C)=C[C@@H]21 [compound 1, Δ^9-trans-tetrahydrocannabinol, reference compound] | 97.00% | 96.20% | 98.10% | 98.20% | 88.60% | 89.90% | 74.30% | 67.60% | 50.30% | 51.20% | 1.0 | 100 | partial agonists; also recorded: partial CB1 and CB2 receptor agonist activity | – | – | – | – | – | – | – | –
2 | CCCCCc1cc(O)c2c(c1)OC(C)(C)[C@@H]1CC[C@@H](C)C[C@@H]21 [4a, (9R)-HHC] | 98.00% | 97.20% | 96.90% | 93.60% | 86.90% | 84.70% | 64.90% | 67.50% | 47.90% | 41.40% | 1.1 | 99 | partial agonists; also recorded: partial CB1 and CB2 receptor agonist activity | 112.10% | 113.60% | 95.20% | 100.00% | 82.50% | 83.30% | 50.10% | Ki [2]: 15 nM; % inhibition of control specific binding ([2]; Log[M] –7.39, 2nd replicate): 52.90%; % inhibition of control specific binding ([2]; Log[M] –7.86, 1st replicate): 27.40%; % inhibition of control specific binding ([2]; Log[M] –7.86, 2nd replicate): 29.00%; nH (Hill coefficient) [2]: 1.1; Top (% inhibition of control specific binding) [2]: 111; selectivity for CB2 (radioligand binding) [1]: 1.2 x; Ki [1, 3]: 13 nM; selectivity for CB1 (functional assay) (human CB1 receptor): 1.8 x; EC50 (human CB1 receptor): 3.4 nM; agonist character at CB1 (human CB1 receptor; functional assay): partial agonists; also recorded: partial CB1 and CB2 receptor agonist activity; increase in potency compared to 4b, CB1 (human CB1 receptor; functional assay): 17 fold; selectivity for CB2 (functional activity) (human CB2 receptor): 0.55 x; EC50 (human CB2 receptor): 6.2 nM; increase in potency compared to 4b, CB2 (human CB2 receptor; functional assay): 9 fold
3 | CCCCCc1cc(O)c2c(c1)OC(C)(C)[C@@H]1CC[C@H](C)C[C@@H]21 [4b, (9S)-HHC] | 88.30% | 88.00% | 62.60% | 61.40% | 41.60% | 41.40% | 15.80% | 16.00% | 4.40% | 6.70% | 0.7 | 102 | partial agonists; also recorded: partial CB1 and CB2 receptor agonist activity | 88.80% | 95.80% | 35.70% | 35.70% | 8.70% | 5.50% | –4.50% | % inhibition of control specific binding ([2]; Log[M] –7.39, 2nd replicate): 0.20%; % inhibition of control specific binding ([2]; Log[M] –7.86, 1st replicate): –9.00%; % inhibition of control specific binding ([2]; Log[M] –7.86, 2nd replicate): –6.10%; nH (Hill coefficient) [2]: 1.1; Top (% inhibition of control specific binding) [2]: 106; Ki ([2]; [3H]CP 55940 displacement, transfected Chem-1 cell lysate, two replicate experiments, error = standard deviation, read-out: Ki (CB1)): 176 nM; Ki ([1]; SI, curve fitted to mean replicate values, Cheng Prusoff, read-out: Ki): 110 nM; Ki [1, 3]: 105 nM; selectivity for CB2 (radioligand binding) ([1]; from Ki at CB1 and CB2): 1.7 x; selectivity for CB1 (functional assay) (human CB1 receptor; CB1 versus CB2, from EC50): no significant selectivity; EC50 (human CB1 receptor): 57 nM; agonist character at CB1 (human CB1 receptor; functional assay): partial agonists; also recorded: partial CB1 and CB2 receptor agonist activity; EC50 (human CB2 receptor): 56 nM; selectivity for CB2 (functional activity) (human CB2 receptor; from EC50 at CB1 and CB2): 1.0 x

— article PMC10510108, “Studies Pertaining to the Emerging Cannabinoid Hexahydrocannabinol (HHC)” (ACS Chemical Biology, 2023)
